Results reported in patent publication US10597388B2, “Pyridazinone herbicides” (FMC CORPORATION, priority 2014, dated 2020).

Key:
Assay type in all cases: in vivo
[1] = system: wheat (Triticum aestivum); assay: Test A greenhouse herbicide test, pre- and postemergence; settings: Postemergence
Procedure, shortened: (§1)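 Seeds in loam–sand blend received a preemergence directed soil spray; plants at 2–10 cm, one- to two-leaf stage, received postemergence sprays. Compounds in a non-phytotoxic solvent with surfactant. After about 10 d in a greenhouse, injury rated visually versus untreated controls on a 0–100 scale (100 = complete control).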

[2] = system: pigweed (Amaranthus retroflexus); assay: as above
Procedure, shortened: as §1

[3] = system: ragweed (common ragweed, Ambrosia elatior); assay: as above
Procedure, shortened: as §1

[4] = system: kochia (Kochia scoparia); assay: as above
Procedure, shortened: as §1

[5] = system: foxtail, giant (giant foxtail, Setaria faberii); assay: as above
Procedure, shortened: as §1

[6] = system: barnyardgrass (Echinochloa crus-galli); assay: as above
Procedure, shortened: as §1

[7] = system: corn (Zea mays); assay: as above; settings: Postemergence
Procedure, shortened: as §1

[8] = system: chickweed (common chickweed, Stellaria media); assay: Test C greenhouse herbicide test, postemergence
Procedure, shortened: (§2)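 Postemergence foliar treatment, 1- to 4-leaf stage (2–18 cm), peat/vermiculite medium; greenhouse 13–15 d; visual rating vs controls, 0 = no effect, 100 = complete control; dash = no result.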

[9] = system: kochia (Kochia scoparia); assay: Test C greenhouse herbicide test, postemergence
Procedure, shortened: as §2

[10] = system: oat, wild (wild oat, Avena fatua); assay: Test C greenhouse herbicide test, postemergence
Procedure, shortened: as §2

[11] = 125 g ai/ha, 0 to 100 scale where 0 is no effect and 100 is complete control
[12] = 500 g ai/ha, visual rating after approx. 10 d, 0 to 100 scale (0 no effect, 100 complete control)
[13] = Postemergence, 125 g ai/ha, 0 to 100 scale where 0 is no effect and 100 is complete control
[14] = Postemergence, 500 g ai/ha, visual rating after approx. 10 d, 0 to 100 scale (0 no effect, 100 complete control)
[15] = Preemergence, 125 g ai/ha, 0 to 100 scale where 0 is no effect and 100 is complete control
[16] = Preemergence, 500 g ai/ha, 0 to 100 scale where 0 is no effect and 100 is complete control
[17] = Postemergence, 31 g ai/ha, scale 0 to 100 (0 no effect, 100 complete control)
[18] = Postemergence, 62 g ai/ha, 0 to 100 scale (0 no effect, 100 complete control)
[19] = Postemergence, 250 g ai/ha, scale 0 to 100, 0 no effect, 100 complete control, 13 to 15 d
[20] = postemergence, 125 g ai/ha, scale 0 to 100, 0 no effect, 100 complete control
[21] = Postemergence, 125 g ai/ha, scale 0 to 100, 0 is no effect, 100 is complete control
[22] = postemergence, 62 g ai/ha, scale 0 to 100, 0 no effect, 100 complete control
[23] = Postemergence, 500 g ai/ha, 0 to 100 scale, 0 is no effect, 100 is complete control
[24] = 500 g ai/ha, 0 to 100 scale, 0 is no effect, 100 is complete control
[25] = Postemergence, 31 g ai/ha, 0 to 100 scale (0 no effect, 100 complete control)
[26] = 125 g ai/ha, 0 to 100 scale, 0 no effect, 100 complete control
[27] = Postemergence, 125 g ai/ha, 0 to 100 scale, 0 no effect, 100 complete control
[28] = Preemergence, 125 g ai/ha, visual injury rating, 0 to 100 scale (0 no effect, 100 complete control), approx. 10 d
[29] = Postemergence, 250 g ai/ha, scale 0 to 100, 0 is no effect, 100 is complete control

CC(=O)Oc1c(C)nn(C)c(=O)c1-c1c(C)sc2ccc(C(F)(F)F)cc12 [Compound 132]
Plant response rating, Wheat [1, 11]: 0 | Plant response rating, Wheat [1, 12]: 20 | Plant response rating, Pigweed [2, 13]: 60 | Plant response rating, Pigweed [2, 14]: 90 | Pigweed plant response rating [2, 15]: 90 | Plant response rating, Pigweed [2, 16]: 100 | Plant response rating, Ragweed [3, 13]: 100 | Plant response rating, Ragweed [3, 14]: 100 | Ragweed plant response rating [3, 15]: 80 | Plant response rating, Ragweed [3, 16]: 90 | Plant response rating, Kochia [4, 13]: 50 | Plant response rating, Kochia [4, 14]: 80 | Kochia plant response rating [4, 15]: 60 | Plant response rating, Kochia [4, 16]: 90 | Plant response rating, Foxtail, Giant [5, 13]: 60 | Plant response rating, Foxtail, Giant [5, 14]: 80 | Foxtail, Giant plant response rating [5, 15]: 70 | Plant response rating, Foxtail, Giant [5, 16]: 90 | Plant response rating, Barnyardgrass [6, 13]: 0 | Plant response rating, Barnyardgrass [6, 14]: 30 | Barnyardgrass plant response rating [6, 15]: 0 | Plant response rating, Barnyardgrass [6, 16]: 70 | Plant response rating, Corn [7, 11]: 0 | Plant response rating, Corn [7, 12]: 10 | Plant response rating, Chickweed [8, 17]: 90 | Chickweed plant response rating [8, 18]: 90 | Plant response rating, Chickweed [8, 19]: 95 | Chickweed plant response rating [8, 20]: 95 | Plant response rating, Kochia [9, 17]: 85 | Kochia plant response rating [9, 18]: 90 | Plant response rating, Kochia [9, 19]: 95 | Kochia plant response rating [9, 20]: 95 | Plant response rating, Oat, Wild [10, 17]: 40 | Oat, Wild plant response rating [10, 18]: 60 | Plant response rating, Oat, Wild [10, 19]: 90 | Oat, Wild plant response rating [10, 20]: 70

CCC(=O)Oc1c(C)nn(C)c(=O)c1-c1ccc(F)c2ccccc12 [Compound 113]
Plant response rating, Wheat [1, 11]: 30 | Plant response rating, Wheat [1, 12]: 70 | Plant response rating, Pigweed [2, 13]: 90 | Plant response rating, Pigweed [2, 14]: 100 | Pigweed plant response rating [2, 15]: 100 | Plant response rating, Pigweed [2, 16]: 100 | Plant response rating, Ragweed [3, 13]: 90 | Plant response rating, Ragweed [3, 14]: 100 | Ragweed plant response rating [3, 15]: 70 | Plant response rating, Ragweed [3, 16]: 90 | Plant response rating, Kochia [4, 13]: 100 | Plant response rating, Kochia [4, 14]: 100 | Kochia plant response rating [4, 15]: 90 | Plant response rating, Kochia [4, 16]: 100 | Plant response rating, Foxtail, Giant [5, 13]: 40 | Plant response rating, Foxtail, Giant [5, 14]: 90 | Foxtail, Giant plant response rating [5, 15]: 70 | Plant response rating, Foxtail, Giant [5, 16]: 100 | Plant response rating, Barnyardgrass [6, 13]: 40 | Plant response rating, Barnyardgrass [6, 14]: 90 | Barnyardgrass plant response rating [6, 15]: 70 | Plant response rating, Barnyardgrass [6, 16]: 100 | Plant response rating, Corn [7, 11]: 20 | Plant response rating, Corn [7, 12]: 70 | Plant response rating, Chickweed [8, 17]: 90 | Plant response rating, Chickweed [8, 21]: 98 | Plant response rating, Chickweed [8, 19]: 100 | Chickweed plant response rating [8, 22]: 90 | Plant response rating, Kochia [9, 17]: 95 | Plant response rating, Kochia [9, 21]: 95 | Plant response rating, Kochia [9, 19]: 100 | Plant response rating, Oat, Wild [10, 17]: 90 | Plant response rating, Oat, Wild [10, 21]: 90 | Plant response rating, Oat, Wild [10, 19]: 90

CC(=O)Oc1c(C)nn(C)c(=O)c1-c1c(C)sc2ccc(Cl)cc12 [Compound 108]
Plant response rating, Wheat [1, 11]: 0 | Plant response rating, Wheat [1, 12]: 20 | Plant response rating, Pigweed [2, 13]: 90 | Plant response rating, Pigweed [2, 14]: 100 | Pigweed plant response rating [2, 15]: 100 | Plant response rating, Pigweed [2, 16]: 100 | Plant response rating, Ragweed [3, 13]: 70 | Plant response rating, Ragweed [3, 14]: 100 | Ragweed plant response rating [3, 15]: 90 | Plant response rating, Ragweed [3, 16]: 100 | Plant response rating, Kochia [4, 13]: 90 | Plant response rating, Kochia [4, 14]: 100 | Kochia plant response rating [4, 15]: 90 | Plant response rating, Kochia [4, 16]: 100 | Plant response rating, Foxtail, Giant [5, 13]: 60 | Plant response rating, Foxtail, Giant [5, 14]: 90 | Foxtail, Giant plant response rating [5, 15]: 90 | Plant response rating, Foxtail, Giant [5, 16]: 100 | Plant response rating, Barnyardgrass [6, 13]: 30 | Barnyardgrass plant response rating [6, 23]: 90 | Barnyardgrass plant response rating [6, 15]: 20 | Plant response rating, Barnyardgrass [6, 16]: 100 | Plant response rating, Corn [7, 11]: 0 | Plant response rating, Corn [7, 12]: 0 | Plant response rating, Chickweed [8, 17]: 90 | Plant response rating, Chickweed [8, 21]: 95 | Plant response rating, Chickweed [8, 19]: 98 | Chickweed plant response rating [8, 22]: 90 | Plant response rating, Kochia [9, 17]: 90 | Plant response rating, Kochia [9, 21]: 95 | Plant response rating, Kochia [9, 19]: 100 | Plant response rating, Oat, Wild [10, 17]: 80 | Plant response rating, Oat, Wild [10, 21]: 90 | Plant response rating, Oat, Wild [10, 19]: 90

Cc1ccc2ccccc2c1-c1c(OC(=O)OC(C)C)c(C)nn(C)c1=O [Compound 72]
Plant response rating, Wheat [1, 11]: 20 | Wheat plant response rating [1, 24]: 70 | Plant response rating, Pigweed [2, 13]: 90 | Pigweed plant response rating [2, 23]: 90 | Pigweed plant response rating [2, 15]: 100 | Plant response rating, Pigweed [2, 16]: 100 | Plant response rating, Ragweed [3, 13]: 70 | Ragweed plant response rating [3, 23]: 90 | Ragweed plant response rating [3, 15]: 90 | Plant response rating, Ragweed [3, 16]: 90 | Plant response rating, Kochia [4, 13]: 60 | Kochia plant response rating [4, 23]: 90 | Kochia plant response rating [4, 15]: 50 | Plant response rating, Kochia [4, 16]: 100 | Plant response rating, Foxtail, Giant [5, 13]: 30 | Foxtail, Giant plant response rating [5, 23]: 90 | Foxtail, Giant plant response rating [5, 15]: 70 | Plant response rating, Foxtail, Giant [5, 16]: 100 | Plant response rating, Barnyardgrass [6, 13]: 20 | Barnyardgrass plant response rating [6, 23]: 60 | Barnyardgrass plant response rating [6, 15]: 10 | Plant response rating, Barnyardgrass ([6]; Preemergence, 500 g ai/ha, 0 to 100 scale, 0 no effect, 100 complete control): 100 | Plant response rating, Corn [7, 11]: 20 | Corn plant response rating [7, 24]: 40 | Chickweed plant response rating [8, 25]: 90 | Plant response rating, Chickweed [8, 21]: 90 | Plant response rating, Chickweed [8, 19]: 90 | Chickweed plant response rating [8, 22]: 90 | Kochia plant response rating [9, 25]: 60 | Plant response rating, Kochia [9, 21]: 90 | Plant response rating, Kochia [9, 19]: 90 | Kochia plant response rating [9, 22]: 85 | Oat, Wild plant response rating [10, 25]: 85 | Plant response rating, Oat, Wild [10, 21]: 90 | Plant response rating, Oat, Wild [10, 19]: 95 | Oat, Wild plant response rating [10, 22]: 95

Cc1nn(C)c(=O)c(-c2c([N+](=O)[O-])ccc3ccccc23)c1O [Compound 165]
Plant response rating, Wheat [1, 26]: 0 | Plant response rating, Wheat [1, 12]: 0 | Plant response rating, Pigweed [2, 27]: 80 | Plant response rating, Pigweed [2, 14]: 80 | Plant response rating, Pigweed [2, 28]: 100 | Plant response rating, Pigweed [2, 16]: 90 | Plant response rating, Ragweed [3, 27]: 90 | Plant response rating, Ragweed [3, 14]: 90 | Plant response rating, Ragweed [3, 28]: 50 | Plant response rating, Ragweed [3, 16]: 90 | Plant response rating, Kochia [4, 27]: 60 | Plant response rating, Kochia [4, 14]: 90 | Plant response rating, Kochia [4, 28]: 60 | Plant response rating, Kochia [4, 16]: 100 | Plant response rating, Foxtail, Giant [5, 27]: 20 | Plant response rating, Foxtail, Giant [5, 14]: 50 | Plant response rating, Foxtail, Giant [5, 28]: 10 | Plant response rating, Foxtail, Giant [5, 16]: 40 | Plant response rating, Barnyardgrass [6, 27]: 20 | Plant response rating, Barnyardgrass [6, 14]: 30 | Plant response rating, Barnyardgrass [6, 28]: 10 | Plant response rating, Barnyardgrass [6, 16]: 30 | Plant response rating, Corn [7, 26]: 0 | Plant response rating, Corn [7, 12]: 20 | Plant response rating, Chickweed [8, 17]: 70 | Chickweed plant response rating [8, 18]: 90 | Plant response rating, Chickweed [8, 29]: 98 | Chickweed plant response rating [8, 20]: 95 | Plant response rating, Kochia [9, 17]: 45 | Kochia plant response rating [9, 18]: 40 | Plant response rating, Kochia [9, 29]: 90 | Kochia plant response rating [9, 20]: 85 | Plant response rating, Oat, Wild [10, 17]: 40 | Oat, Wild plant response rating [10, 18]: 45 | Plant response rating, Oat, Wild [10, 29]: 70 | Oat, Wild plant response rating [10, 20]: 65
